Data on 18 compounds can be found in patent US7635696B2, “Isoxazoline-indole derivatives with an improved antipsychotic and anxiolytic activity” (Janssen Pharmaceutica N.V., priority 2004, dated 2009).

Where only a bound is given, the exact number is not on record here.

In experiment [1] the target is T1, Human Dopamine D3 receptor (Homo sapiens, UniProt P35462).
T1 construct: expressed in transfected cells; host or cells: CHO cells
Briefly: Binding experiment for dopamine D3 receptor ([125I]Iodosulpride). The note with it: transfected CHO cell membranes; for IC50: read-out: pIC50 D3 (converted). The procedure: (§1) The interaction of the compounds of Formula (I) with dopamine-receptors, h5HT-transporter and h5HT1A receptor was assessed in in vitro radioligand binding experiments. In general, a low concentration of a radioligand with a high binding affinity for a particular receptor or transporter is incubated with a sample of a tissue preparation enriched in a particular receptor or transporter or with a preparation of cells expressing cloned human receptors in a buffered medium. During the incubation, the radioligand binds to the receptor or transporter. When equilibrium of binding is reached, the receptor bound radioactivity is separated from the non-bound radioactivity, and the receptor- or transporter-bound activity is counted. The interaction of the test compounds with the receptor is assessed in competition binding experiments. Various concentrations of the test compound are added to the incubation mixture containing the receptor- or transporter preparation and the radioligand. The test compound in proportion to its binding affinity and its concentration inhibits binding of the radioligand.
Human Dopamine D3 receptor-transfected CHO cells were collected by scraping into ice-cold Tris-HCl buffer (50 mM, pH 7.4). The suspension was centrifuged (23 500×g, 10 min, 4° C.) and pellets stored at −70° C. until required. They were then thawed and briefly homogenised using an Ultra-Turrax T25 homogeniser prior to dilution to an appropriate protein concentration optimised for specific and non-specific binding. [^125I]Iodosulpride (Amersham, specific activity 2000 Ci/mmol) was diluted in Tris-HCl assay buffer containing NaCl, CaCl2, MgCl2, KCl and BSA (50, 120, 2, 1, 5 mM, 0.1% respectively, adjusted to pH 7.7 with HCl) at a concentration of 2 nmol/L. Prepared radioligand (20 μl) was incubated (60 min, RT) and with 20 μl of either the 10% DMSO control, Risperidone (10^−6 mol/L final concentration), or compound of interest, then with membrane preparations (80 μl). Overnight incubation followed after addition of WGA-coated PVT SPA beads (250 μl; Amersham) and membrane-bound counts measured in a Wallac Microbeta. % Specific bound and competition binding curves were calculated using S-Plus software (Insightful).

The next experiment deals with T2, Human 5HT1A receptor (Homo sapiens, UniProt P08908).
T2 construct: expressed in transfected cells; host or cells: L929 cells (stably transfected)
T2 sequence (P08908 1-422): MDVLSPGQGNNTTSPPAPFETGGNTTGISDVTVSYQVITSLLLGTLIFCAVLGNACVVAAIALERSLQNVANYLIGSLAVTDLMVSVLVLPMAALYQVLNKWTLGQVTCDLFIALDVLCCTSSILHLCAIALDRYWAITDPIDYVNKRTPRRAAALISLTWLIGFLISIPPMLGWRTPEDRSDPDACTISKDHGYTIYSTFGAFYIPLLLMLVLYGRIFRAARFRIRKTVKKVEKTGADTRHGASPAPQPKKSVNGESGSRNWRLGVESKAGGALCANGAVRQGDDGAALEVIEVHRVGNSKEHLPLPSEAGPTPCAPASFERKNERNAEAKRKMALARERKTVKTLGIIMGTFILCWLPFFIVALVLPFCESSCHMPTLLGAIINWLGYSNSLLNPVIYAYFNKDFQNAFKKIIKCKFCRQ
Put plainly: Binding experiment for 5-HT1A receptor ([3H]8OHDPAT). The note with it: transfected L929 cell membranes, [3H]8OHDPAT; for IC50: read-out: pIC50 5-HT1A (converted). The method, then:
as §1
Human 5HT1A receptor-transfected L929 cells were collected by scraping into ice-cold Tris-HCl buffer (50 mM, pH 7.4). The suspension was centrifuged (23 500×g, 10 min, 4° C.) and pellets stored at −70° C. until required. They were then thawed and briefly homogenised using an Ultra-Turrax T25 homogeniser prior to dilution to an appropriate protein concentration optimised for specific and non-specific binding. [^3H]80HDPAT (NEN, specific activity 127 Ci/mmol) was diluted in Tris-HCl assay buffer containing CaCl2 (50 mM and 4 mM, respectively; pH 7.7) at a concentration of 5 nmol/L. Prepared radioligand (50 μl) was then incubated (30 min, 37° C.) with membrane preparations from L929 cells stably-transfected with the h5HT1A gene construct (400 μl) and with 50 μl of either the 10% DMSO control, spiroxatrine (10^−6 mol/L final concentration), or compound of interest. Membrane-bound activity was detected by filtration through a Packard Filtermate harvester onto Unifilterplates, washing with ice-cold Tris-HCl buffer (3×4 ml), followed by drying. Scintillation fluid was added and membranes were counted in a Topcount scintillation counter. % Specific bound and competition binding curves were calculated using S-Plus software (Insightful).

Another experiment concerns the target T3, human 5HT transporter (Homo sapiens, UniProt P31645).
T3 construct: host or cells: HEK cells
Put plainly: Binding experiment for 5-HT transporter ([3H]Paroxetine). The note with it: transfected HEK cell membranes, [3H]Paroxetine; for IC50: read-out: pIC50 5HTT (converted). The procedure:
as §1
Frozen human 5HT transporter-transfected HEK cells (Perkin Elmer, Brussels) were thawed and briefly homogenised using an Ultra-Turrax T25 homogeniser prior to dilution to an appropriate protein concentration optimised for specific and non-specific binding. [^3H]Paroxetine (NEN, specific activity 20 Ci/mmol) was diluted in Tris-HCl assay buffer containing NaCl and KCl (50 mM, 120 mM and 5 mM, respectively; pH 7.4) at a concentration of 5 nmol/L. Prepared radioligand (25 μl) was then incubated (60 min, 25° C.) with membrane preparations (200 μl) and with 25 μl of either 10% DMSO control, Inipramine (10^−6 mol/L final concentration), or compound of interest. Membrane-bound activity was detected by filtration through a Packard Filtermate harvester onto Unifilterplates pre-soaked in 0.1% PEI, washing with ice-cold assay buffer (3×4 ml). Filters were dried prior to addition of scintillation fluid and then counting in a Topcount scintillation counter. % Specific bound and competition binding curves were calculated using S-Plus software (Insightful).

Experiment [2] has as its target T4, Human Dopamine D2L receptor (Homo sapiens, UniProt P14416).
T4 construct: expressed in transfected cells; host or cells: CHO cells
Put plainly: Binding experiment for dopamine D2 receptor ([3H]Spiperone). The note with it: D2L-transfected CHO cell membranes; for IC50: read-out: pIC50 D2 (converted). The method, then: as §1
Human Dopamine D2L receptor-transfected CHO cells were collected by scraping into ice-cold Tris-HCl buffer (50 mM, pH 7.4). The suspension was centrifuged (23 500×g, 10 min, 4° C.) and pellets stored at −70° C. until required. They were then thawed and briefly homogenised using an Ultra-Turrax T25 homogeniser prior to dilution to an appropriate protein concentration optimised for specific and non-specific binding. [^3H]Spiperone (NEN, specific activity ˜70 Ci/mmol) was diluted in Tris-HCl assay buffer containing NaCl, CaCl2, MgCl2, KCl (50, 120, 2, 1, and 5 mM respectively, adjusted to pH 7.7 with HCl) at a concentration of 2 nmol/L. Prepared radioligand (50 μl) was then incubated (30 min, 37° C.) with membrane preparations pre-diluted to an appropriate protein concentration (400 μl), and with 50 μl of either the 10% DMSO control, Butaclamol (10^−6 mol/L final concentration), or compound of interest. Membrane-bound activity was detected by filtration through a Packard Filtermate harvester onto Unifilterplates, washing with ice-cold Tris-HCl buffer (50 mM; pH8.0; 3×4 ml). Filters were allowed to dry before adding scintillation fluid and counting in a Topcount scintillation counter. % Specific bound and competition binding curves were calculated using S-Plus software (Insightful).

T1 sequence (P35462 whole entry): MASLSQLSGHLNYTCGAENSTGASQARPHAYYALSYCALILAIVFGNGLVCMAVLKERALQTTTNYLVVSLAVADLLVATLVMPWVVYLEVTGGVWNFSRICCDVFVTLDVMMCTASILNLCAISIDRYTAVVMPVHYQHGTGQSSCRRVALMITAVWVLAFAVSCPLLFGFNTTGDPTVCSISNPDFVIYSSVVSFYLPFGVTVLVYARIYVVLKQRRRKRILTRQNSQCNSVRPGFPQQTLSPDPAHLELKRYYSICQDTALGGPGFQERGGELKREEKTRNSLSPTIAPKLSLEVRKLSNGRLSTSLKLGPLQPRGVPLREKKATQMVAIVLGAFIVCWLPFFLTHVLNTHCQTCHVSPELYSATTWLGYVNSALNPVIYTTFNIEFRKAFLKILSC
T4 sequence (P14416 whole entry): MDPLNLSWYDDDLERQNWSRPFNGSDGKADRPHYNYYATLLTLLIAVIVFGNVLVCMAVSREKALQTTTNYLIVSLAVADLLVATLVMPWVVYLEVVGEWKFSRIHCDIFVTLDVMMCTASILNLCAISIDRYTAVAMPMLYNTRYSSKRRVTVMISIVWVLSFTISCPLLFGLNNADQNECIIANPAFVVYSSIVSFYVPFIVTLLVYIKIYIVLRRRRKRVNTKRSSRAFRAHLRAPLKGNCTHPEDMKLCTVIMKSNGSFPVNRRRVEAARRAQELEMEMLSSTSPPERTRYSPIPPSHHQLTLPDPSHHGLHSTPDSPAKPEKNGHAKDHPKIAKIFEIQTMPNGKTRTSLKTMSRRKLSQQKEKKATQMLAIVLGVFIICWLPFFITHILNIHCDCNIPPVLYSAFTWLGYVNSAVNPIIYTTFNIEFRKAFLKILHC
T3 sequence (P31645 whole entry): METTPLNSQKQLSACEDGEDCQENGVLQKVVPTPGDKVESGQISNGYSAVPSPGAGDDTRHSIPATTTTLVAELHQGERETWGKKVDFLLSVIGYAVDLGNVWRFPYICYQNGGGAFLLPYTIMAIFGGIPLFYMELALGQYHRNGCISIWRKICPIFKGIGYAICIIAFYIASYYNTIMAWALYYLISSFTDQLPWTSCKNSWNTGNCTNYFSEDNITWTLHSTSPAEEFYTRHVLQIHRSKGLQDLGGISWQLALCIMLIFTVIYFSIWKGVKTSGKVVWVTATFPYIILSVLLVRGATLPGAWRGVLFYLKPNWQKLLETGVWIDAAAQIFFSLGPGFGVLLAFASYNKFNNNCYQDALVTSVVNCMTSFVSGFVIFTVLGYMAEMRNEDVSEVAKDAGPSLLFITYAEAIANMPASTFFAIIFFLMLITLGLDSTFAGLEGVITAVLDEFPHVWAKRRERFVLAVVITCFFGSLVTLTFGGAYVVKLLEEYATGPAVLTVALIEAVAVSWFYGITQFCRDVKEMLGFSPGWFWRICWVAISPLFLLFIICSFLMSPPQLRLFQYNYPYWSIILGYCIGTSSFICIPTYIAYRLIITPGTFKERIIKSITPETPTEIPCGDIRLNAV

As for `COc1cc2c(cc1OC)C1=NOC(CN3CC=C(c4c[nH]c5ccc(F)cc45)CC3)C1CO2` (racemic) [Compound 1], the IC50 in experiment [1] is 0.126 µM; on Human 5HT1A receptor, 0.0316 µM; on human 5HT transporter, 0.0158 µM; in experiment [2] it was 0.398 µM.
In the case of `COc1cc2c(cc1OC)C1=NOC(CN3CCC(c4c[nH]c5ccc(F)cc45)CC3)C1CO2` (racemic) [Compound 2], the “pIC50 D3” value in experiment [1] is 7.2. Also, the “pIC50 5-HT1A” value on Human 5HT1A receptor amounted to 8.8. For the same compound, the “pIC50 5HTT” value at human 5HT transporter came out at 7.4. Besides, the “pIC50 D2” value in experiment [2] is 7.2.
For `COc1ccc2[nH]cc(C3=CCN(CC4ON=C5c6cc(OC)c(OC)cc6OCC54)CC3)c2c1` (racemic) [Compound 7], the “pIC50 D3” value in experiment [1] is below 6. In addition, at Human 5HT1A receptor, the “pIC50 5-HT1A” value is 8.1. Besides, the “pIC50 5HTT” value at human 5HT transporter worked out at 6.4. Also, the “pIC50 D2” value in experiment [2] is on record as below 6.
Turning to `COc1cc2c(cc1OC)C1=NOC(CN3CC=C(c4c[nH]c5cccc(F)c45)CC3)C1CO2` (racemic) [Compound 9], the “pIC50 D3” value in experiment [1] stood at 6.6. Further, the “pIC50 5-HT1A” value at Human 5HT1A receptor was 8.2. At human 5HT transporter, the “pIC50 5HTT” value turned out to be 7.5. For the same compound, the “pIC50 D2” value in experiment [2] is recorded as 6.1.
As for `COc1cc2c(cc1OC)C1=NOC(CN3CC=C(c4c[nH]c5ccc(Br)cc45)CC3)C1CO2` (racemic) [Compound 10], the “pIC50 D3” value in experiment [1] is 6.5. Moreover, the “pIC50 5-HT1A” value on Human 5HT1A receptor turned out to be 8.3. For the same compound, at human 5HT transporter, the “pIC50 5HTT” value was found to be 6.7. The “pIC50 D2” value in experiment [2] amounted to 6.3.
`COc1cc2c(cc1OC)C1=NOC(CN3CCC(c4c[nH]c5cccc(F)c45)CC3)C1CO2` (racemic) [Compound 17]: the “pIC50 D3” value in experiment [1] is on record as 6.3. On Human 5HT1A receptor, the “pIC50 5-HT1A” value worked out at 8.2. The “pIC50 5HTT” value at human 5HT transporter turned out to be 7.6. In addition, the “pIC50 D2” value in experiment [2] is 6.9.
As to `COc1cc2c(cc1OC)C1=NOC(CN3CC=C(c4c[nH]c5ccc(C)cc45)CC3)C1CO2` (racemic) [Compound 18], in experiment [1], the “pIC50 D3” value came out at 6.4. For the same compound, the “pIC50 5-HT1A” value on Human 5HT1A receptor was 8.2. Moreover, the “pIC50 5HTT” value on human 5HT transporter amounted to 7.0. Besides, the “pIC50 D2” value in experiment [2] turned out to be 6.4.
`COc1cc2c(cc1OC)C1=NOC(CN3CC=C(c4c[nH]c5ccc([N+](=O)[O-])cc45)CC3)C1CO2` (racemic) [Compound 19]: in experiment [1], the “pIC50 D3” value is 6.5. In addition, the “pIC50 5-HT1A” value at Human 5HT1A receptor was determined as 8.1. Further, the “pIC50 5HTT” value on human 5HT transporter came out at 7.1. For the same compound, the “pIC50 D2” value in experiment [2] was found to be 6.1.
For the compound `COc1cc2c(cc1OC)C1=NOC(CN3CCC(c4c[nH]c5ccc(N)cc45)CC3)C1CO2` (racemic) [Compound 20], the “pIC50 D3” value in experiment [1] is recorded as below 6. On Human 5HT1A receptor, the “pIC50 5-HT1A” value is 7.6. The “pIC50 5HTT” value on human 5HT transporter was determined as 5.4. Moreover, in experiment [2], the “pIC50 D2” value is recorded as 6.2.
On to `COc1cc2c(cc1OC)C1=NOC(CN3CC=C(c4c[nH]c5ccc(O)cc45)CC3)C1CO2` (racemic) [Compound 21], for which the IC50 is 0.158 µM in experiment [1], 0.0126 µM on Human 5HT1A receptor, 0.0398 µM on human 5HT transporter and 0.631 µM in experiment [2].
Regarding `COc1cc2c(cc1OC)C1=NOC(CN3CC=C(c4c[nH]c5ccc(-c6ccccc6)cc45)CC3)C1CO2` (racemic) [Compound 22], the IC50 in experiment [1] was 3.16 µM; at Human 5HT1A receptor, 0.0251 µM; at human 5HT transporter it was 2.51 µM; in experiment [2] it was 3.98 µM.
In the case of `COc1cc2c(cc1OC)C1=NOC(CN3CC=C(c4c[nH]c5ccc(C#N)cc45)CC3)C1CO2` (racemic) [Compound 23], the “pIC50 D3” value in experiment [1] is listed as 6.8. The “pIC50 5-HT1A” value on Human 5HT1A receptor is 8.2. The “pIC50 5HTT” value at human 5HT transporter worked out at 7.4. Moreover, in experiment [2], the “pIC50 D2” value is given as 6.1.
For the compound `COc1cc2c(cc1OC)C1=NOC(CN3CCC(c4c[nH]c5cc(F)ccc45)CC3)C1CO2` (single isomer, unassigned) [Compound 35], the “pIC50 5-HT1A” value on Human 5HT1A receptor turned out to be 6.4. For the same compound, the “pIC50 5HTT” value at human 5HT transporter is listed as 7.3. Also, the “pIC50 D2” value in experiment [2] amounted to 6.9.
On to `COc1cc2c(cc1OC)C1=NOC(CN3CCC(c4c[nH]c5cc(F)ccc45)CC3)C1CO2` (single isomer, unassigned) [Compound 36], for which the “pIC50 5-HT1A” value on Human 5HT1A receptor stood at 8.0. Further, at human 5HT transporter, the “pIC50 5HTT” value is 6.8. Besides, the “pIC50 D2” value in experiment [2] is 7.5.
The matching figures for `COc1cc2c(cc1OC)C1=NOC(CN3CCC(c4c[nH]c5ccccc45)CC3)C1CO2.O=C(O)C(=O)O` (single isomer, unassigned) [Compound 45]: 7.0, 6.9 and 6.3.
As for `COc1cc2c(cc1OC)C1=NOC(CN3CC=C(c4c[nH]c5ccc(N)cc45)CC3)C1CO2` (stereo not drawn) [Compound 33], the IC50 on Human 5HT1A receptor was 0.0126 µM; on human 5HT transporter, 0.631 µM; in experiment [2] it was 1.26 µM.
Consider `COc1cc2c(cc1OC)C1=NOC(CN3CCC(c4coc5cc(F)ccc45)CC3)C1CO2` (stereo not drawn) [Compound 59], for which the IC50 at Human 5HT1A receptor is 0.0158 µM; on human 5HT transporter, 0.0794 µM; in experiment [2] it was 0.1 µM.
For the compound `COCCOCOc1ccc2[nH]cc(C3=CCN(CC4ON=C5c6cc(OC)c(OC)cc6OCC54)CC3)c2c1` (stereo not drawn) [Compound 62], the IC50 at Human 5HT1A receptor was 0.0631 µM; on human 5HT transporter, above 10 µM; in experiment [2] it was above 10 µM.
